Experiment: stability of crystals of the hydrochloride salt
Format: physicochemical
Description: Dimethylamine (approximately 10 ml) was condensed at -80° C. in a pressure tube and to this was added a solution of N-(4-azidobut-2-ynyl)-2-(R)-(1-(R)-(3,5-bis(trifluoromethyl) phenyl)ethoxy)-3-(S)-(4-fluorophenyl)morpholine (3.2 g) in dioxan (15 ml). The tube was sealed and the solution was heated at 90° C. for 16 h. The solution was evaporated to dryness and the residue chromatographed on silica gel (eluting with 5% methanol in dichloromethane containing 0.25% ammonia (SG. 0.88)) and the fractions containing the desired product were evaporated in vacuo to give the title compound. To a solution of this residue in diethyl ether was added 1M-HCl in methanol. The solution was evaporated to dryness and redissolved in diethyl ether to give crystals of the title compound hydrochloride salt m.p. 194°-198° C., [α]^22D +65.0° (C=0.5, H2 O).

Measured: stability of crystals

C[C@@H](O[C@H]1OCCN(Cc2nn[nH]c2CN(C)C)[C@H]1c1ccc(F)cc1)c1cc(C(F)(F)F)cc(C(F)(F)F)c1 [Example 12]
stable for at least five days: at 40° C. | at 40° C./75% relative humidity | at 80° C. | at 2000LUX

— patent publication US5612337A, “Substituted morpholine derivatives and their use as therapeutic agents” (Merck Sharp & Dohme Limited, priority 1993, dated 1997)
